Usually IC50 stands for the concentration needed to halve the response being measured.

Molecules are shown by their SMILES. Starred links: 1 amine or outer side, 2 acyl side, 3 side chain; linkers in the order of their positions; H or OH if unused. Non-standard residues stand in square brackets, D forms with d. Residues, ends and D or L forms follow the SMILES beside them. Groups on a side chain read outwards from the residue. *: point of attachment. C18 diacid = O=C(O)CCCCCCCCCCCCCCCCC(=O)*; γGlu = O=C(O)[C@H](CCC(=O)[*:2])N[*:1]; AEEA = NCCOCCOCC(=O)O; Aib = CC(C)(N)C(=O)O

The target of this assay is T1, human GLP-1 receptor (Homo sapiens, UniProt P43220).
T1 construct: expressed in transfected cells; host or cells: membranes of BHK cells (parent BHKTS13), clone FCW467-12A
T1 sequence (P43220 24-463): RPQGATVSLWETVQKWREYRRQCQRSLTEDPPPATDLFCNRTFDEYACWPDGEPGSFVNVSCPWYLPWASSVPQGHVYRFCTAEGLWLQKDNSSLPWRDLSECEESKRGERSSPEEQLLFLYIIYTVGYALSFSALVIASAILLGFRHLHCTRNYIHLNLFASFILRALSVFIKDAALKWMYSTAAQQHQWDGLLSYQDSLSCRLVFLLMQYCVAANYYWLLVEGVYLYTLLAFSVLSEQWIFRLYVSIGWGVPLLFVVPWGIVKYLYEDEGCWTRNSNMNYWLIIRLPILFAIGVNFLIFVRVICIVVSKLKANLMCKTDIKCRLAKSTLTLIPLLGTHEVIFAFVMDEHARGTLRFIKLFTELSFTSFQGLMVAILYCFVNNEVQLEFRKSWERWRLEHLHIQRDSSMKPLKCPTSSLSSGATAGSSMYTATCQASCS
The assay can be described thus: Assay (II)(a) GLP-1 receptor binding, 125I-GLP-1 displacement SPA on BHK membranes. As to conditions: without presence of serum albumin; read-out: GLP-1R IC50 (nM) [Assay (II)(a)]. The procedure:
The GLP-1 receptor (GLP-1R) binding is a measure of affinity of a compound for the human GLP-1 receptor. The receptor binding of each compound to the human GLP-1 receptor was measured in a displacement binding assay. In this type of assay a labelled ligand (in this case 125I-GLP-1) is bound to the receptor. Each derivative was added in a series of concentrations to isolated membranes containing the human GLP-1 receptor and displacement of the labelled ligand was monitored. The receptor binding was reported as the concentration at which half of the labelled ligand was displaced from the receptor, the IC50 value. In order to test the binding of the derivatives to albumin, the assay may be performed in a very low concentration of serum albumin (max. 0.001% final assay concentration) as well as in the presence of a (considerably) higher concentration of serum albumin (2.0% final assay concentration). An increase of the IC50 value, in the presence of serum albumin indicates an affinity to serum albumin and represents a method to predict a protracted pharmacokinetic profile of the test substance in animal models. The following chemicals were used in the assay: DMEM w/o phenol red (Gibco 11880-028), Pen/strep (Invitrogen 15140-122), G418 (Invitrogen 10131-027), 1 M Hepes (Gibco 15630), EDTA (Invitrogen 15575-038), PBS (Invitrogen 14190-094), fetal calf serum (Invitrogen 16140-071), EGTA, MgCl2 (Merck 1.05832.1000), Tween 20 (Amresco 0850C335), SPA particles (wheat germ agglutinin (WGA) SPA beads, Perkin Elmer RPNQ0001), [125I]-GLP-1]-(7-36)NH2 (produced in-house), OptiPlate™-96 (Perkin Elmer). Buffer 1 consisted of 20 mM Na-HEPES plus 10 mM EDTA and pH was adjusted to 7.4. Buffer 2 consisted of 20 mM Na-HEPES plus 0.1 mM EDTA and pH was adjusted to 7.4. Assay buffer consisted of 50 mM HEPES supplemented with 5 mM EGTA, 5 mM MgCl2, 0.005% Tween 20 and pH was adjusted to 7.4. The cells used in this assay (clone FCW467-12A) were BHK cells with BHKTS13 as a parent cell line. The cells express the human GLP-1 receptor. The cells were grown at 5% CO2 in DMEM, 10% fetal calf serum, 1% Pen/Strep (Penicillin/Streptomycin) and 1.0 mg/ml of the selection marker G418. To make a membrane preparation the cells were grown to approximately 80% confluence. The cells were washed twice in phosphate-buffered saline and harvested. The cells were pelleted using a brief centrifugation and the cell pellet was kept on ice. The cell pellet was homogenised with ULTRA-THURRAX dispersing instrument for 20-30 seconds in a suitable amount of buffer 1 (e.g., 10 ml). The homogenate was centrifuged for 15 minutes. The pellet was re-suspended (homogenised) in 10 ml buffer 2 and centrifuged. This step was repeated once more. The resulting pellet was re-suspended in buffer 2 and the protein concentration was determined. The membranes were aliquoted and stored at minus 80° C. • 1. For the receptor binding assay, 50 μl of the assay buffer was added to each well of an assay plate. • 2. Test compounds were serially diluted to give the following concentrations: 8×10EE-7 M, 8×10EE-8 M, 8×10EE-9 M, 8×10EE-10 M, 8×10EE-11 M, 8×10EE-12 M and 8×10EE-13 M. Twenty-five μl were added to appropriate wells in the assay plate. • 3. Cell membrane aliquots were thawed and diluted to their working concentration. Fifty μl were added to each well in the assay plate. • 4. WGA SPA beads were suspended in assay buffer at 20 mg/ml. The suspension was diluted to 10 mg/ml in assay buffer just prior to addition to the assay plate. Fifty μl were added to each well in the assay plate. • 5. The incubation was started by adding 25 μl of […] solution of [125I]-GLP-1]-(7-36)NH2 to each well of the assay plate. A 25 μl aliquot was reserved for measuring total counts/well. • 6. The assay plate was incubated for 2 h at 30° C. • 7. The assay plate was centrifuged for 10 min. • 8. The assay plate was read in a Perkin Elmer TopCount NXT instrument. […]

Take `CC[C@H](C)[C@H](NC(=O)[C@H](CC(C)C)NC(=O)[C@H](Cc1c[nH]c2ccccc12)NC(=O)[C@H](CCCCNC(=O)COCCOCCNC(=O)COCCOCCNC(=O)CC[C@H](NC(=O)CC[C@H](NC(=O)CC[C@H](NC(=O)CCCCCCCCCCCCCCCCC(=O)O)C(=O)O)C(=O)O)C(=O)O)NC(=O)[C@@H](NC(=O)[C@H](Cc1ccccc1)NC(=O)[C@H](CC(=O)O)NC(=O)[C@H](CCCNC(=N)N)NC(=O)[C@H](C)NC(=O)[C@H](CCCNC(=N)N)NC(=O)[C@H](CCCNC(=N)N)NC(=O)[C@H](CO)NC(=O)[C@H](CCC(=O)O)NC(=O)[C@H](CC(C)C)NC(=O)[C@H](Cc1ccc(O)cc1)NC(=O)[C@H](CCCCN)NC(=O)[C@H](CO)NC(=O)[C@H](Cc1ccc(O)cc1)NC(=O)[C@H](CC(=O)O)NC(=O)[C@H](CO)NC(=O)[C@@H](NC(=O)[C@H](Cc1ccccc1)NC(=O)[C@@H](NC(=O)CNC(=O)[C@H](CCC(N)=O)NC(=O)C(C)(C)NC(=O)[C@@H](N)Cc1c[nH]cn1)[C@@H](C)O)[C@@H](C)O)C(C)C)C(=O)N[C@@H](CO)C(=O)N[C@H](C(N)=O)[C@@H](C)O` [Chem. 11, N^ε24-[2-[2-[2-[[2-[2-[2-[[(4S)-4-carboxy-4-[[(4S)-4-carboxy-4-[[(4S)-4-carboxy-4-(17-carboxyheptadecanoylamino)butanoyl]amino]butanoyl]amino]butanoyl]amino]ethoxy]ethoxy]acetyl]amino]ethoxy]ethoxy]acetyl]-[Aib2,Glu15,Arg20,Lys24,Ile27,Ser28]-Glucagon amide] (H-H[Aib]QGTFTSDYSKYLESRRARDFVK([AEEA-AEEA-γGlu-γGlu-γGlu-C18 diacid])WLIST-NH2): the IC50 was determined as 0.5 nM.
Regarding `CC[C@H](C)[C@H](NC(=O)[C@H](CC(C)C)NC(=O)[C@H](Cc1c[nH]c2ccccc12)NC(=O)[C@H](CCC(N)=O)NC(=O)[C@@H](NC(=O)[C@H](Cc1ccccc1)NC(=O)[C@H](CC(=O)O)NC(=O)[C@H](CCC(N)=O)NC(=O)[C@H](C)NC(=O)[C@H](CCCNC(=N)N)NC(=O)[C@H](CCCNC(=N)N)NC(=O)[C@H](C)NC(=O)[C@H](CC(=O)O)NC(=O)[C@H](CC(C)C)NC(=O)[C@H](Cc1ccc(O)cc1)NC(=O)[C@H](CCCCN)NC(=O)[C@H](CO)NC(=O)[C@@H](NC(=O)[C@H](CC(=O)O)NC(=O)[C@H](CO)NC(=O)[C@@H](NC(=O)[C@H](Cc1ccccc1)NC(=O)[C@@H](NC(=O)CNC(=O)[C@H](CCC(N)=O)NC(=O)C(C)(C)NC(=O)[C@@H](N)Cc1c[nH]cn1)[C@@H](C)O)[C@@H](C)O)C(C)C)C(C)C)C(=O)N[C@@H](CCCCNC(=O)CC[C@H](NC(=O)COCCOCCNC(=O)COCCOCCNC(=O)CC[C@H](NC(=O)CC[C@H](NC(=O)CCCCCCCCCCCCCCCCC(=O)O)C(=O)O)C(=O)O)C(=O)O)C(=O)N[C@H](C(N)=O)[C@@H](C)O` [Chem. 39, N^ε28-[(4S)-4-carboxy-4-[[2-[2-[2-[[2-[2-[2-[[(4S)-4-carboxy-4-[[(4S)-4-carboxy-4-(17-carboxyheptadecanoylamino)butanoyl]amino]butanoyl]amino]ethoxy]ethoxy]acetyl]amino]ethoxy]ethoxy]acetyl]amino]butanoyl]-[Aib2,Val10,Ala16,Ile27,Lys28]-Glucagon amide] (H-H[Aib]QGTFTSDVSKYLDARRAQDFVQWLIK([γGlu-AEEA-AEEA-γGlu-γGlu-C18 diacid])T-NH2; N-terminus assumed), the IC50 came to 0.1 nM.
`CC[C@H](C)[C@H](NC(=O)[C@H](CC(C)C)NC(=O)[C@H](Cc1c[nH]c2ccccc12)NC(=O)[C@H](CCC(N)=O)NC(=O)[C@@H](NC(=O)[C@H](Cc1ccccc1)NC(=O)[C@H](CC(=O)O)NC(=O)[C@H](CCCNC(=N)N)NC(=O)[C@H](C)NC(=O)[C@H](CCCNC(=N)N)NC(=O)[C@H](CCCNC(=N)N)NC(=O)[C@H](C)NC(=O)[C@H](CC(=O)O)NC(=O)[C@H](CC(C)C)NC(=O)[C@H](Cc1ccc(O)cc1)NC(=O)[C@H](CCCCN)NC(=O)[C@H](CO)NC(=O)[C@H](CC(C)C)NC(=O)[C@H](CC(=O)O)NC(=O)[C@H](CO)NC(=O)[C@@H](NC(=O)[C@H](Cc1ccccc1)NC(=O)[C@@H](NC(=O)CNC(=O)[C@H](CCC(N)=O)NC(=O)C(C)(C)NC(=O)[C@@H](N)Cc1c[nH]cn1)[C@@H](C)O)[C@@H](C)O)C(C)C)C(=O)N[C@@H](CCCCNC(=O)COCCOCCNC(=O)COCCOCCNC(=O)CC[C@H](NC(=O)CC[C@H](NC(=O)CC[C@H](NC(=O)CCCCCCCCCCCCCCCCC(=O)O)C(=O)O)C(=O)O)C(=O)O)C(=O)N[C@H](C(N)=O)[C@@H](C)O` [Chem. 5, N^ε28-[2-[2-[2-[[2-[2-[2-[[(4S)-4-carboxy-4-[[(4S)-4-carboxy-4-[[(4S)-4-carboxy-4-(17-carboxyheptadecanoylamino)butanoyl]amino]butanoyl]amino]butanoyl]amino]ethoxy]ethoxy]acetyl]amino]ethoxy]ethoxy]acetyl]-[Aib2,Leu10,Ala16,Arg20,Ile27,Lys28]-Glucagon amide] (H-H[Aib]QGTFTSDLSKYLDARRARDFVQWLIK([AEEA-AEEA-γGlu-γGlu-γGlu-C18 diacid])T-NH2; N-terminus assumed): the IC50 was determined as 0.1 nM.
As for `CC[C@H](C)[C@H](NC(=O)[C@H](CC(C)C)NC(=O)[C@H](Cc1c[nH]c2ccccc12)NC(=O)[C@H](CCC(N)=O)NC(=O)[C@@H](NC(=O)[C@H](Cc1ccccc1)NC(=O)[C@H](CC(=O)O)NC(=O)[C@H](CCC(N)=O)NC(=O)[C@H](C)NC(=O)[C@H](CCCNC(=N)N)NC(=O)[C@H](CCCNC(=N)N)NC(=O)[C@H](CC(C)C)NC(=O)[C@H](CC(=O)O)NC(=O)[C@H](CC(C)C)NC(=O)[C@H](Cc1ccc(O)cc1)NC(=O)[C@H](CCCCN)NC(=O)[C@H](CO)NC(=O)[C@H](CC(C)C)NC(=O)[C@H](CC(=O)O)NC(=O)[C@H](CO)NC(=O)[C@@H](NC(=O)[C@H](Cc1ccccc1)NC(=O)[C@@H](NC(=O)CNC(=O)[C@H](CCC(N)=O)NC(=O)C(C)(C)NC(=O)[C@@H](N)Cc1c[nH]cn1)[C@@H](C)O)[C@@H](C)O)C(C)C)C(=O)N[C@@H](CCCCNC(=O)COCCOCCNC(=O)COCCOCCNC(=O)CC[C@H](NC(=O)CC[C@H](NC(=O)CC[C@H](NC(=O)CCCCCCCCCCCCCCCCC(=O)O)C(=O)O)C(=O)O)C(=O)O)C(=O)N[C@H](C(N)=O)[C@@H](C)O` [Chem. 9, N^ε28-[2-[2-[2-[[2-[2-[2-[[(4S)-4-carboxy-4-[[(4S)-4-carboxy-4-[[(4S)-4-carboxy-4-(17-carboxyheptadecanoylamino)butanoyl]amino]butanoyl]amino]butanoyl]amino]ethoxy]ethoxy]acetyl]amino]ethoxy]ethoxy]acetyl]-[Aib2,Leu10,Leu16,Ile27,Lys28]-Glucagon amide] (H-H[Aib]QGTFTSDLSKYLDLRRAQDFVQWLIK([AEEA-AEEA-γGlu-γGlu-γGlu-C18 diacid])T-NH2; N-terminus assumed), the figure is 0.5 nM.

For the origin of these results see patent US10570184B2, “GLP-1/glucagon receptor co-agonists for medical use” (Novo Nordisk A/S, priority 2014, dated 2020).
